Reference: the supplement of paper PMC11061612

Key:
Assay in all cases: Bliss excess, mean over the matrix (fraction); higher = more synergy
[1] = test system: BV-173 (Chronic Myelogenous Leukemia)
Outline: (§1)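 After 24 hours at 37°C and 5% CO2 in 1536-well plates, cells in DMEM/F12 or RPMI plus 10% FBS received two-drug dose matrices for 72 hours. Viability came from CellTiter-Glo 2.0 luminescence and was scaled as inhibition, anchored at 0 by vehicle wells and at 1 by blank wells. Combination Emax is taken as the second-highest inhibition in the matrix, and Bliss excess as the observed combination effect less EA + EB − EA·EB, with EA and EB the single-agent effects.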

EW-18 (Ewing's Sarcoma) = test system: EW-18 (Ewing's Sarcoma)
Outline: as §1

GI-1 (Glioblastoma) = test system: GI-1 (Glioblastoma)
Outline: as §1

[2] = test system: HSC-2 (Oral Cavity Carcinoma)
Outline: as §1

[3] = test system: HuP-T3 (Pancreatic Carcinoma)
Outline: as §1

[4] = test system: JHH-7 (Hepatocellular Carcinoma)
Outline: as §1

[5] = test system: KINGS-1 (Low Grade Glioma)
Outline: as §1

[6] = test system: KLE (Endometrial Carcinoma)
Outline: as §1

[7] = test system: KYSE-150 (Esophageal Squamous Cell Carcinoma)
Outline: as §1

[8] = test system: MFE-319 (Endometrial Carcinoma)
Outline: as §1

NB7 (Neuroblastoma) = test system: NB7 (Neuroblastoma)
Outline: as §1

[9] = test system: NCI-H2347 (Lung Adenocarcinoma)
Outline: as §1

[10] = test system: NCI-H322M (Lung Adenocarcinoma)
Outline: as §1

[11] = test system: NCI-H513 (Other Solid Carcinomas)
Outline: as §1

[12] = test system: NCI-N87 (Gastric Carcinoma)
Outline: as §1

[13] = test system: OCUM-1 (Gastric Carcinoma)
Outline: as §1

RPMI-7951 (Melanoma) = test system: RPMI-7951 (Melanoma)
Outline: as §1

[14] = test system: SNU-C1 (Colorectal Carcinoma)
Outline: as §1

[15] = test system: TGBC11TKB (Gastric Carcinoma)
Outline: as §1

SMILES	Bliss excess [1]	Bliss excess (EW-18 (Ewing's Sarcoma))	Bliss excess (GI-1 (Glioblastoma))	Bliss excess [2]	Bliss excess [3]	Bliss excess [4]	Bliss excess [5]	Bliss excess [6]	Bliss excess [7]	Bliss excess [8]	Bliss excess (NB7 (Neuroblastoma))	Bliss excess [9]	Bliss excess [10]	Bliss excess [11]	Bliss excess [12]	Bliss excess [13]	Bliss excess (RPMI-7951 (Melanoma))	Bliss excess [14]	Bliss excess [15]
Cc1cc2ncnn2cc1Nc1ncc2c(n1)n(C1CCOCC1)c(=O)n2C [AZD7648] + O=C(c1cc(Cc2n[nH]c(=O)c3ccccc23)ccc1F)N1CCN(C(=O)C2CC2)CC1 [Olaparib] (first compound max 10 µM, 7x7, partner max 10 µM)	-0.0062	-0.0427	-0.0013	-0.0277	-0.0254	-0.0356	-0.0561	-0.013	-0.0351	-0.0499	-0.0291	-0.0144	-0.0342	-0.0002	-0.0262	-0.0571	0.0044	-0.0619	-0.0447
CCN(CCO)CCCOc1ccc2c(Nc3cc(CC(=O)Nc4cccc(F)c4)[nH]n3)ncnc2c1 [AZD2811] + O=C(c1cc(Cc2n[nH]c(=O)c3ccccc23)ccc1F)N1CCN(C(=O)C2CC2)CC1 [Olaparib] (first compound max 1 µM, 7x7, partner max 10 µM)	-0.0212	-0.0534	0.0685	0.0524	-0.0195	0.0118	-0.0579	-0.282	0.0291	0.0376	0.0598	-0.0303	-0.0063	-0.0203	0.0237	0.0383	0.0463	-0.0016	0.0524
C=CCn1c(=O)c2cnc(Nc3ccc(N4CCN(C)CC4)cc3)nc2n1-c1cccc(C(C)(C)O)n1 [AZD1775] + C[C@@H]1COCCN1C2=NC(=NC(=C2)C3(CC3)[S@](=N)(=O)C)C4=C5C=CNC5=NC=C4 [AZD6738] (first compound max 1 µM, partner max 10 µM)	0.0199	-0.0198	0.0753	0.0675	0.0338	0.0273	-0.0475	-0.0361	-0.029	0.0583	-0.025	0.0438	-0.0234	-0.0058	-0.0824	-0.0391	0.0368	0.0303	0.0431
COc1cccc(OCCCN)c1-c1cc(Nc2cnc(C#N)cn2)n[nH]1 [Prexasertib] + C=CCn1c(=O)c2cnc(Nc3ccc(N4CCN(C)CC4)cc3)nc2n1-c1cccc(C(C)(C)O)n1 [AZD1775] (first compound max 1 µM, partner max 1 µM)	-0.0251	-0.0615	0.05	0.178	0.0054	0.107	0.072	0.112	0.149	-0.0049	0.0708	-0.0548	0.0366	0.0545	-0.0324	0.0518	0.0723	0.0175	0.0431
CN(C)CCCOc1ccc(-c2ccc3ncc4c(c3c2)n(C2CCOCC2)c(=O)n4C)cn1 [AZD0156] + CCN(CCO)CCCOc1ccc2c(Nc3cc(CC(=O)Nc4cccc(F)c4)[nH]n3)ncnc2c1 [AZD2811] (first compound max 1 µM, 7x7, partner max 1 µM)	-0.0331	-0.0219	0.0555	0.0232	-0.0379	-0.0296	-0.0173	-0.0232	-0.0382	-0.0431	-0.0082	-0.0299	-0.0448	-0.0019	0.0046	0.032	-0.0152	-0.0245	0.0298
Cc1cc2ncnn2cc1Nc1ncc2c(n1)n(C1CCOCC1)c(=O)n2C [AZD7648] + CN(C)CCCOc1ccc(-c2ccc3ncc4c(c3c2)n(C2CCOCC2)c(=O)n4C)cn1 [AZD0156] (first compound max 10 µM, 7x7, partner max 1 µM)	0.0151	-0.0268	0.0472	0.0203	-0.0065	-0.0152	0.0089	0.0175	0.0054	0.0572	0.0303	0.0159	0.0083	-0.0145	0.0452	0.0016	-0.0164	-0.0423	-0.0224
CCN(CCO)CCCOc1ccc2c(Nc3cc(CC(=O)Nc4cccc(F)c4)[nH]n3)ncnc2c1 [AZD2811] + C=CCn1c(=O)c2cnc(Nc3ccc(N4CCN(C)CC4)cc3)nc2n1-c1cccc(C(C)(C)O)n1 [AZD1775] (first compound max 1 µM, partner max 1 µM)	-0.0222	-0.134	0.0285	0.0771	-0.0366	-0.0186	-0.0173	-0.0513	0.0438	-0.0361	0.0497	-0.0475	-0.0188	-0.0195	-0.0657	-0.0127	0.0106	-0.0321	0.0257
